We go through 16 compounds from PubChem BioAssay (NCI).

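Each compound was tested at five concentrations against cells in 96-well plates for 48 hours. TGI marks complete inhibition of growth.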

What all share (test): growth of human tumour cells (NCI), 48 h
In assay [1] the test system is 786-0 renal.
Assay [2] concerns A549 NSCLC.
Assay [3] relates to BT-549 breast.
The subject of assay [4] is CAKI-1 renal.
The test system of assay [5] is HCT-15 colon.
The subject of assay [6] is HOP-92 NSCLC.
Assay [7] concerns IGROV1 ovarian.
For assay [8], the system named is K-562 leukemia.
Assay [9] deals with LOX IMVI melanoma.
The subject of assay [10] is M14 melanoma.
Assay [11] has as its system MCF7 breast.
The subject of assay [12] is MDA-MB-435.
For assay [13], the system named is RPMI-8226 leukemia.
Assay [14] concerns RXF 393 renal.
In assay [15] the test system is SK-MEL-28 melanoma.
Assay [16] relates to SNB-75 CNS.
Assay [17] concerns UO-31 renal.
The test system of assay [18] is A498 renal.
Assay [19] deals with HT29 colon.
Assay [20] concerns U251 CNS.

With `O=P1(O)c2ccccc2CCc2ccccc21`, the TGI in assay [1], in [2], in assay [3], in assay [4], in assay [5] and in assay [6] was over 100 µM each time. Moreover, the TGI in assay [7], in assay [8], in assay [9], in assay [10], in assay [11] and in assay [12] was over 100 µM throughout. In addition, the TGI in assay [13], in [14], in assay [15], in [16] and in assay [17] was over 100 µM in each case.

Take `NCCCCC(NC(=O)C(N)Cc1ccc(O)cn1)C(=O)O` (configuration not stated): the TGI in [1], in [18], in assay [2], in assay [3], in [4] and in assay [5] was over 100 µM throughout. The TGI in assay [6], in assay [19], in [7], in [8], in [9] and in [11] was over 100 µM in each case. For the same compound, the TGI in assay [12], in [13], in assay [14], in [15], in assay [20] and in assay [17] was over 100 µM throughout.

As to `COc1ccccc1NC(=S)Nc1cc(C)cc(C)n1`, the TGI in [1], in [18], in assay [2], in [3], in assay [4] and in assay [5] was over 100 µM each time. Further, the TGI in assay [19], in assay [7], in [8], in assay [9], in assay [10] and in [11] was over 100 µM each time. For the same compound, the TGI in [12], in assay [13], in assay [14], in assay [15], in assay [16] and in assay [20] was over 100 µM each time. This compound registered a TGI in assay [17] of over 100 µM.

As to `Cc1ccc([N+](=O)[O-])cc1S(=O)(=O)Nc1ccc(C2=NN(c3ccc([N+](=O)[O-])cc3[N+](=O)[O-])C(c3cccs3)C2)cc1` (configuration not stated), the TGI in [1] was 38.6 µM; in assay [2] it was over 100 µM; in [3], 49.8 µM; in assay [4], over 100 µM; in [5], 32.7 µM; in [6], 84.6 µM. Further, the TGI in [19] was over 100 µM; in [7], 53.7 µM; in assay [8], over 100 µM; in assay [9], 39.9 µM; in assay [10], 32.9 µM; in assay [11] it was 80.1 µM. For the same compound, the TGI in [12] was 51.4 µM; in [13] it was 60.5 µM; in assay [14], 54.3 µM; in [15] it was over 100 µM; in assay [16] it was 81.3 µM; in [20], 72.3 µM. This compound showed a TGI in [17] of over 100 µM.

As to `c1ccc2c(c1)CC1=C(O2)c2ccccc2OC1`, the TGI is 32.6 µM in assay [1]; over 100 µM in assay [18]; over 100 µM in [2]; 51.1 µM in assay [3]; 49.5 µM in [4]; 72.6 µM in [5]. In addition, the TGI in assay [6] was 95 µM; in assay [19], over 100 µM; in assay [7], over 100 µM; in assay [9], 40.2 µM; in assay [10], over 100 µM; in [11] it was over 100 µM. The TGI in assay [12] is 86.3 µM; in assay [13] it was 67.3 µM; in [20], 59.2 µM; in assay [17], over 100 µM.

As to `CCOC(=O)CCCNC(=O)CCCCC(=O)N(C)C`, the TGI in assay [1], in [18], in [2], in assay [3], in assay [4] and in assay [5] was over 100 µM in each case. For the same compound, the TGI in [6], in assay [19], in assay [7], in [8], in assay [9] and in assay [10] was over 100 µM throughout. Further, the TGI in [11], in assay [12], in assay [13], in [15], in assay [20] and in assay [17] was over 100 µM throughout.

For the compound `Cc1nc(-c2cc3c(ccc4ccccc43)oc2=O)cs1`, the TGI in assay [1] is over 100 µM; in assay [2], over 100 µM; in assay [3], 57.8 µM; in [4] it was over 100 µM; in assay [5] it was over 100 µM; in assay [6], 89.5 µM. In addition, the TGI in [19], in [7], in assay [8], in assay [9], in [10] and in [11] was over 100 µM each time. The TGI in [12] was over 100 µM; in [13], over 100 µM; in [14], over 100 µM; in assay [15], over 100 µM; in assay [16], 75.2 µM; in assay [20], over 100 µM. For the same compound, the TGI in assay [17] was over 100 µM.

Take `O=C(O)COCC(=O)N(CCOCCN(Cc1ccccc1)C(=O)COCC(=O)O)Cc1ccccc1`: the TGI in assay [1], in assay [18], in [2], in [3], in [4] and in [5] was over 100 µM in each case. Further, the TGI in assay [6], in assay [19], in [7], in assay [8], in assay [9] and in [10] was over 100 µM each time. The TGI in assay [11], in [12], in assay [13], in assay [14], in assay [15] and in [20] was over 100 µM in each case.

For `COc1cc(/C=N\N(C)C)cc(/C=N/N(C)C)c1O`, the TGI in [1] was 74.1 µM; in assay [18], over 100 µM; in [2], over 100 µM; in [3], 61.9 µM; in [4], 52.1 µM; in [5], over 100 µM. The TGI in assay [6] is 61.8 µM; in assay [19] it was 48 µM; in assay [9], 58.7 µM; in [10] it was 83.9 µM; in [11] it was over 100 µM; in assay [12], over 100 µM. For the same compound, the TGI in assay [13] is 50.2 µM; in assay [14] it was over 100 µM; in [15], 59.7 µM; in assay [20], 74.8 µM; in assay [17] it was 79.5 µM.

As for `CC(C)(C)C(=O)OCOP(=O)(OCOC(=O)C(C)(C)C)OCC1OC(n2ccc(=O)[nH]c2=O)C(N=[N+]=[N-])C1O` (configuration not stated), the TGI in assay [1] came to 10.3 µM; in assay [2] it was 14 µM; in [3], 14.9 µM; in assay [4], 22.5 µM; in assay [5], 10.7 µM; in assay [6] it was 5 µM. Further, the TGI is 11.4 µM in assay [19]; 17.5 µM in assay [7]; over 100 µM in assay [8]; 3.44 µM in assay [9]; 14.3 µM in assay [10]; 14.7 µM in assay [11]. The TGI in [12] is 15.5 µM; in assay [13] it was 5.22 µM; in assay [14], 7.07 µM; in [15], 24 µM; in [16], 14.1 µM; in assay [20] it was 10.5 µM. The same compound came in with a TGI in [17] of 4.58 µM.

Consider `COc1ccc(/C=C2\CCC(C)C3C2=NN(c2ccccc2)C3c2ccc(OC)c(OC)c2)cc1OC` (configuration not stated), for which the TGI in [1] was 14.5 µM; in assay [18] it was 12.3 µM; in assay [3] it was 21.5 µM; in assay [4], 15.6 µM; in [5], 9.92 µM; in assay [19] it was 18.3 µM. In addition, the TGI is 8.23 µM in assay [7]; 18.5 µM in assay [8]; 8.63 µM in assay [9]; 43.3 µM in assay [10]; 21.8 µM in assay [11]; over 100 µM in [12]. The TGI in [13] was 4.3 µM; in assay [14], 16.3 µM; in [15] it was 31.6 µM; in assay [16], 6.37 µM; in [20], over 100 µM; in assay [17] it was 22.1 µM.

As for `CC(=O)c1sc2c(c1OC(=O)c1ccco1)c(=O)n(-c1ccccc1)c(=S)n2-c1ccccc1`, the TGI was over 100 µM in [1]; over 100 µM in assay [2]; 62.3 µM in [3]; over 100 µM in assay [4]; 41.9 µM in assay [5]; 22 µM in assay [6]. For the same compound, the TGI in [19] was over 100 µM; in [7], 54.2 µM; in [8] it was over 100 µM; in [9] it was 39.3 µM; in [10], 28.3 µM; in [11], 55.4 µM. Also, the TGI was determined as 61.7 µM in assay [12]; 41.6 µM in assay [13]; 28.2 µM in [14]; 61.9 µM in assay [15]; 78.1 µM in [16]; 88.1 µM in assay [20]. Besides, the TGI in assay [17] is 49.3 µM.

Turning to `O=C(Cn1c2c(c3ccccc31)CCCC2)N1CCCC1`, the TGI in assay [1], in assay [18], in assay [2], in assay [3], in assay [4] and in assay [5] was over 100 µM each time. Besides, the TGI in assay [6], in assay [19], in [7], in [9], in assay [10] and in assay [11] was over 100 µM throughout. The TGI in [12], in assay [13], in assay [15] and in assay [17] was over 100 µM each time.

As to `CN(C)c1ccc(/C=C2/NC(=S)NC2=O)cc1`, the TGI in assay [1], in assay [2], in assay [3], in assay [4], in assay [5] and in assay [6] was over 100 µM throughout. Moreover, the TGI in assay [19], in assay [7], in [9], in [10], in assay [11] and in assay [12] was over 100 µM each time. Further, the TGI in assay [13], in [14], in assay [15], in assay [16], in [20] and in assay [17] was over 100 µM each time.

Take `COc1cc(/C=C2/SC(c3ccccc3)N(c3ccccc3Cl)C2=O)cc(OC)c1OC` (configuration not stated): the TGI in assay [1] was over 100 µM; in [18] it was over 100 µM; in [2], over 100 µM; in assay [3] it was 85.1 µM; in assay [4], over 100 µM; in assay [5], over 100 µM. In addition, the TGI in [6] was over 100 µM; in assay [8] it was over 100 µM; in assay [9] it was 41.7 µM; in [10] it was over 100 µM; in assay [11], over 100 µM; in [12], over 100 µM. Besides, the TGI in assay [13] was 52.3 µM; in assay [14], 70.2 µM; in [15] it was over 100 µM; in assay [20], 67.8 µM; in assay [17] it was over 100 µM.

Turning to `O=C1CCC2(c3ccccc3)Nc3ccncc3N12` (configuration not stated), the TGI in assay [1], in assay [2], in assay [3], in [5], in assay [6] and in assay [19] was over 10 µM throughout. The TGI in [8], in assay [9], in assay [10], in [11], in assay [12] and in assay [16] was over 10 µM throughout. Moreover, the TGI in [20] and in assay [17] was over 10 µM throughout.
